We go through three molecules from ChEMBL document CHEMBL3508693 (2016).

A short description of series [1]: % SPP100 (0-168h) recovered in urine following single intravenous dose of [14C] aliskiren hemifumarate at 1 mg.Kg-1 level in marmoset. To be noted: in vivo. Type of series: ADME, organism-based, Callithrix jacchus.
A short description of series [2]: %Unchanged aliskiren in urine following 10 day repeated oral administration of [14C] aliskiren hemifumarate at 100 mg.Kg-1 level studied in rat. Type of series: ADME, organism-based, Albino HAN:WIST. To be noted: in vivo, 240 h.
Another series addresses T1, CYP1A2 (Homo sapiens, UniProt P05177).
T1 sequence (P05177 whole entry): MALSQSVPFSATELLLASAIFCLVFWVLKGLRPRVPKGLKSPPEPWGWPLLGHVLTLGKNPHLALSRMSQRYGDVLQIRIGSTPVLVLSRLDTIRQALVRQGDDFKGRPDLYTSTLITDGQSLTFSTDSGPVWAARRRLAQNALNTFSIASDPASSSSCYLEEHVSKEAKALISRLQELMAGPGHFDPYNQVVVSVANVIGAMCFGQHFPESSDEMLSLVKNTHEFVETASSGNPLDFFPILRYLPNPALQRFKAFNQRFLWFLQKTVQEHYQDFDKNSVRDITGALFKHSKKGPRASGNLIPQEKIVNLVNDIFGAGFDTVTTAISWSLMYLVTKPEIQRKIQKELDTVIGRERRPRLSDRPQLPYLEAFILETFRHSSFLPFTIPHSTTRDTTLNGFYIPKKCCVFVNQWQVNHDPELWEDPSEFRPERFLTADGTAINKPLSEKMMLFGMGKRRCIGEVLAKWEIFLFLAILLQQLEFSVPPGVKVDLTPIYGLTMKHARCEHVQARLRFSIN
In words: Inhibitory activity of 200 uM SPP100 on 484 Pmoles of cDNA-derived CYP1A2 enzyme in microsome prepared from human lymphoblastoid cell line. Type of series: ADME, microsomes. Set-up: conc 200 uM, interact cpd conc 50 uM. To be noted: probe phenacetin.

Series [3] in a line: % SPP100 recovered in bile following single intravenous administration of 10 mg.Kg-1 [14C] aliskiren hemifumarate in male rat. Type of series: ADME, organism-based, HAN:WIST(SPF). To be noted: in vivo.
Another series has as its target CYP2C9 (Homo sapiens, UniProt P11712). In words: Inhibitory activity of 200 uM SPP100 on 220 Pmoles of cDNA-derived CYP2C9 enzyme in microsome prepared from human lymphoblastoid cell line. The series is classed as ADME, microsomes. Set-up: conc 200 uM, interact cpd conc 6 uM. The settings on record: probe diclofenac.
In a further series the target is CYP2C19 (Homo sapiens, UniProt P33261). Briefly: Inhibitory activity of 200 uM SPP100 on 1077 Pmoles of cDNA-derived CYP2C19 enzyme in microsome prepared from human lymphoblastoid cell line. Also on record: conc 200 uM, interact cpd conc 50 uM. The settings on record: probe (S)-mephenytoin (50 uM). The series is classed as ADME, microsomes.
The target in the next series is Cytochrome P450 2E1 (Homo sapiens, UniProt P05181). In words: Metabolic clearance (ul.min.nmol-1 CYP) of aliskiren hemifumarate for CYP2E1 was determined in human liver microsome incubated with [14C]SPP100 hemifumarate. The series is classed as ADME. To be noted: microsomes. In general terms: Liver microsomes are vesicles of endoplasmic reticulum, rich in cytochrome P450 enzymes.

The nature of series [4]: Total excretion of radioactivity following intravenous administration of [14C] aliskiren hemifumarate at 1 mg.Kg-1 level in marmoset. Type of series: ADME, organism-based, Callithrix jacchus, Urine/Feces. To be noted: in vivo.
A short description of series [5]: % of radioactivity (48h) recovered in bile of receiver rat following duodenal infusion of radioactivity through bile from donor rat treated with single intravenous administration of 10 mg.Kg-1 [14C] aliskiren hemifumarate. Type of series: ADME, organism-based, HAN:WIST(SPF). To be noted: in vivo.
The next series deals with Cytochrome P450 3A4 (Homo sapiens, UniProt P08684). Briefly: Metabolic clearance (ul.min.nmol-1 CYP) of aliskiren hemifumarate for CYP3A4 was determined in human liver microsome incubated with [14C]SPP100 hemifumarate. The series is classed as ADME. To be noted: microsomes.
Series [6] can be described thus: Excretion of radioactivity (24-48h) in urine following single intravenous dose of 10 mg.Kg-1 [14C] aliskiren hemifumarate in rat. The settings on record: in vivo. The series is classed as ADME, organism-based, Albino HAN:WIST.
Series [7] is described as follows: Excretion (24h) of radioactivity in faeces following intravenous administration of [14C] aliskiren hemifumarate at 10 mg.Kg-1 level in rat. Type of series: ADME, organism-based, Lister-Hooded, Feces. To be noted: in vivo.
Series [8] in a line: Excretion of radioactivity (0-72h) in faeces following single oral dose of 500 mg.Kg-1 [14C] aliskiren hemifumarate in mouse. The series is classed as ADME, organism-based, TgRasH2, Feces. The settings on record: in vivo.
The nature of series [9]: Concentration of radioactivity in the kidney medulla following repeated oral administration of [14C] aliskiren hemifumarate at 100 mg.Kg-1 level studied at 24h after 7th dose in rat. The settings on record: in vivo. The series is classed as ADME, organism-based, Albino HAN:WIST, Renal medulla.
A short description of series [10]: Effect of 2 week oral dosing of aliskiren hemifumarate at 10 mg.Kg-1 level on blood urea nitrogen level in male Callithrix jacchus. Type of series: toxicity, organism-based, Plasma. The settings on record: marmoset, 336 h.
Series [11] in a line: Tmax of aliskiren hemifumarate following 4 week oral dietary dosing of aliskiren hemifumarate at 1000 mg.Kg-1 level in male mouse. The series is classed as ADME, organism-based. To be noted: CB6F1-TGrasH2, mouse, in vivo.
The nature of series [12]: Cmax of aliskiren hemifumarate following single dosing of SPP100B oral solution at 40 mg level studied on day 1 in men. Type of series: ADME, organism-based. To be noted: male, human, plasma.
A short description of series [13]: Tmax of aliskiren hemifumarate following single dosing of SPP100B oral solution at 160 mg level studied on day 1 in men. Type of series: ADME, organism-based. To be noted: male, human, plasma.
A short description of series [14]: AUCspec of aliskiren hemifumarate following 2 week oral dosing of aliskiren hemifumarate at 50 mg.Kg-1 level studied on day 1 in female Callithrix jacchus. Type of series: ADME, organism-based, Plasma. To be noted: marmoset, in vivo, 336 h.
Series [15] can be described thus: Tmax of aliskiren hemifumarate following 8 day once-daily dosing of SPP100B oral solution at 640 mg level studied on day 8 in men. The series is classed as ADME, organism-based. The settings on record: male, human, plasma.
Series [16] in a line: Cmin of aliskiren hemifumarate following repeated oral administration of [14C] aliskiren hemifumarate at 100 mg.Kg-1 level studied after first dosing in rat. The series is classed as ADME, organism-based, Albino HAN:WIST. To be noted: in vivo.
A short description of series [17]: AUC (0-24h) of aliskiren hemifumarate following 4 week oral dietary dosing of aliskiren hemifumarate at 1500 mg.Kg-1 level in female mouse. The series is classed as ADME, organism-based. The settings on record: CB6F1-TGrasH2, mouse, plasma.
A short description of series [18]: AUC (0-24h) of aliskiren hemifumarate following 4 week oral dietary dosing of aliskiren hemifumarate at 1000 mg.Kg-1 level in female mouse. To be noted: CB6F1-TGrasH2, mouse, plasma. The series is classed as ADME, organism-based.
Series [19] can be described thus: Cmax of unlabeled aliskiren hemifumarate following single oral dose of aliskiren hemifumarate at 500 mg.Kg-1 level in mouse. The series is classed as ADME, organism-based. To be noted: TgRasH2, mouse, plasma.
Series [20] can be described thus: Apparent terminal half-life (0-168h) of unlabeled aliskiren hemifumarate following single intravenous administration of aliskiren hemifumarate at 1 mg.Kg-1 level in marmoset. Type of series: ADME, organism-based, Callithrix jacchus. To be noted: plasma.
The nature of series [21]: Absolute oral bioavailability of aliskiren hemifumarate after single oral administration of [14C] aliskiren hemifumarate in mouse. The settings on record: in vivo, 500 mg/kg. Type of series: ADME, organism-based, TgRasH2, Plasma.
Series [22] is described as follows: AUCspec of aliskiren hemifumarate following 2 week oral dosing of aliskiren hemifumarate at 10 mg.Kg-1 level studied on day 1 in female Callithrix jacchus. Type of series: ADME, organism-based, Plasma. To be noted: marmoset, in vivo, 336 h.
The nature of series [23]: Cmax of aliskiren hemifumarate following 2 week oral dosing of aliskiren hemifumarate at 10 mg.Kg-1 level studied on day 14 in female Callithrix jacchus. The series is classed as ADME, organism-based. The settings on record: marmoset, plasma.
A short description of series [24]: Tmax of aliskiren hemifumarate following 2 week oral dosing of aliskiren hemifumarate at 10 mg.Kg-1 level studied on day 1 in female Callithrix jacchus. The series is classed as ADME, organism-based. To be noted: marmoset, plasma.
Series [25] is described as follows: AUC (0-24h)/dose of aliskiren hemifumarate following 4 week oral dietary dosing of aliskiren hemifumarate at 500 mg.Kg-1 level in female mouse. The series is classed as ADME, organism-based, CB6F1-TGrasH2, Plasma. The settings on record: in vivo.
A short description of series [26]: Effect of 4 week oral dietary dosing of aliskiren hemifumarate at 1500 mg.Kg-1 level on spermatogenesis in male mouse. The series is classed as toxicity, organism-based, CB6F1-TGrasH2, Testis. The settings on record: in vivo, 672 h.

CYP2C19, sequence (P33261 whole entry): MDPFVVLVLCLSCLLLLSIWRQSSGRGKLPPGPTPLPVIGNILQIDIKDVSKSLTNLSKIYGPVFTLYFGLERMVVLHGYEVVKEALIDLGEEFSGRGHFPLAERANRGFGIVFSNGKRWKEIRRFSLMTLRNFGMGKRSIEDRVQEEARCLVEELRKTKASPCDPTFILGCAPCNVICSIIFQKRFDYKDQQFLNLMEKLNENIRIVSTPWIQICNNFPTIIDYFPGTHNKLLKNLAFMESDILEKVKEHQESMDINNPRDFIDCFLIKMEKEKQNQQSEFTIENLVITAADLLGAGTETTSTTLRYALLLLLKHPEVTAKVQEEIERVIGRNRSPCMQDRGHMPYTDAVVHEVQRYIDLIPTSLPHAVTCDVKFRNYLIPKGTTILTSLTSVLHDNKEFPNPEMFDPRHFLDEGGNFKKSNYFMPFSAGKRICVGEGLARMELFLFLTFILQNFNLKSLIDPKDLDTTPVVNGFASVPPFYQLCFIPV
CYP2C9, sequence (P11712 whole entry): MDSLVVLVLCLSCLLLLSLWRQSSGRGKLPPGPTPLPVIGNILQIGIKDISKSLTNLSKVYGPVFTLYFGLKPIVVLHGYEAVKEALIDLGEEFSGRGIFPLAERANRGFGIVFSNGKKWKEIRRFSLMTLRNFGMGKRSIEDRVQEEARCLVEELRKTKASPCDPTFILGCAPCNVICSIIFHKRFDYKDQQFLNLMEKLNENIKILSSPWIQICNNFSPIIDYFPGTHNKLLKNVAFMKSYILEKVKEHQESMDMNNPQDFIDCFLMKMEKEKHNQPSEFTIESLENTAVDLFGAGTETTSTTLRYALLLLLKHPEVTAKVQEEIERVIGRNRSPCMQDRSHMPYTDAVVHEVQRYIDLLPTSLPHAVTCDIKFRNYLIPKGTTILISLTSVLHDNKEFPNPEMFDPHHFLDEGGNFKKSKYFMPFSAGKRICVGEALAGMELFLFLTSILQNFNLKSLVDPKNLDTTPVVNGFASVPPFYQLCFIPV
Cytochrome P450 2E1, sequence (P05181 whole entry): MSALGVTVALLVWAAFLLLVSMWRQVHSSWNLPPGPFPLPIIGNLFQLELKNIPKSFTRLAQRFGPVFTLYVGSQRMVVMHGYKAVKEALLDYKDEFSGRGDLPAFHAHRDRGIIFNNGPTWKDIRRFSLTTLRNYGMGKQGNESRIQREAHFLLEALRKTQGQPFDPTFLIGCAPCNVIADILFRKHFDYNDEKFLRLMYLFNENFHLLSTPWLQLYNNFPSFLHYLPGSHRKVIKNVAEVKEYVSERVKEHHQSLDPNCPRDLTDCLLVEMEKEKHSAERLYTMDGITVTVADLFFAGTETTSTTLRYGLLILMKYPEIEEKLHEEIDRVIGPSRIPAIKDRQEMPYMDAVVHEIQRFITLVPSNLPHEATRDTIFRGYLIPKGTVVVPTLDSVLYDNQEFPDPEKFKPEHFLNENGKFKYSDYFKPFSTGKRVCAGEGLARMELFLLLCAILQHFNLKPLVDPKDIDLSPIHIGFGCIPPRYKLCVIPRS
Cytochrome P450 3A4, sequence (P08684 whole entry): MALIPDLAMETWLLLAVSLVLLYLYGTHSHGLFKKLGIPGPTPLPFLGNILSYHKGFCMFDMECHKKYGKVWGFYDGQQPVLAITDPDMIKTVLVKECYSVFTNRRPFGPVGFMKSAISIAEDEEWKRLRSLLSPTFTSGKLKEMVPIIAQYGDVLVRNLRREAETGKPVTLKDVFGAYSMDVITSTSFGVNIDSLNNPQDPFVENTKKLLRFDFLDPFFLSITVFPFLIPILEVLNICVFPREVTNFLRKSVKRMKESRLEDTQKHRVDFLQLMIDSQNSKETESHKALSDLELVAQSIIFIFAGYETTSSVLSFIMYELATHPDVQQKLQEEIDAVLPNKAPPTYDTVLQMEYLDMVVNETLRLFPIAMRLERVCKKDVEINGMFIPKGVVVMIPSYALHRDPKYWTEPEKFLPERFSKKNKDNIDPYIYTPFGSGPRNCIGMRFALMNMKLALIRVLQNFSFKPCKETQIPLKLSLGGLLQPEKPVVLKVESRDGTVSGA

With `COCCCOc1cc(C[C@@H](C[C@H](N)[C@@H](O)C[C@H](C(=O)NCC(C)(C)C(N)=O)C(C)C)C(C)C)ccc1OC`, the Compound recovery was found to be 3% in series [1], 43% in series [2] and 64.3% in series [3]. In addition, the inhibition at 200 µM on CYP1A2 came to 6%; against CYP2C9, 15.8%; on CYP2C19, 9.6%.
For the molecule `COCCCOc1cc(C[C@@H](C[C@H](N)[C@@H](O)C[C@H](C(=O)NCC([14CH3])([14CH3])C(N)=O)C(C)C)C(C)C)ccc1OC.O=C(O)/C=C/C(=O)O`, the CL was 1.4 µL·min/nmol at Cytochrome P450 2E1 and 1013.1 µL·min/nmol at Cytochrome P450 3A4. Also, the Radiolabel recovery in series [4] was 83.1%; in [5] it was 2.2%; in [6], 40%; in [7] it was 66%; in [8], 1.98%; in series [9], “OUTCOME = Detected”.
In series [10], `COCCCOc1cc(C[C@@H](C[C@H](N)[C@@H](O)C[C@H](C(=O)NCC(C)(C)C(N)=O)C(C)C)C(C)C)ccc1OC.COCCCOc1cc(C[C@@H](C[C@H](N)[C@@H](O)C[C@H](C(=O)NCC(C)(C)C(N)=O)C(C)C)C(C)C)ccc1OC.O=C(O)/C=C/C(=O)O` [ALISKIREN FUMARATE] came in with a BUN_CHANGE_BY of 5%. Besides, the Tmax worked out at 3 h in series [11], 2.7 h in [13], 3.2 h in series [15] and 1 h in series [24]. In addition, the values for the Cmax in series [12], in [19] and in series [23] were 0.0051 µg/mL, 1.45 µM and 6.73 µg/mL, respectively. Besides, the AUC normalised in series [14] was 1.12 ((ug.h.ml-1)/(mg/kg); in series [22] it was 2.13 ((ug.h.ml-1)/(mg/kg); in series [25], 1.71 ((ng/mL).hours)/(mg/kg/day). Besides, the “Cmin(1)” value in series [16] was 0.00347 µM. Also, the figures for the AUC(0-t) at 24 h in series [17] and in [18] were 5.47 µg·h/mL and 2.28 µg·h/mL, respectively. The half-life in series [20] was 36 h. This molecule displayed a F in series [21] of 1.5%. The Change in spermatogenesis result in series [26] was “OUTCOME = No abnormalities. No animals died during the study”.

What is called inhibition is the relative decrease from the control value, in per cent. High values mean a response far below the control, low ones a response near the control. A word on the Tmax: it is the time from dosing to the highest level. In general, Cmax refers to the maximum level reached in the sampled fluid or tissue. For orientation: AUC(0-t) means the area under the concentration-time curve up to a stated or last time point. In general, half-life refers to how long it takes for the measured level to halve.
